# Legend:
# [1] = target: Protein kinase C theta type (Homo sapiens) (UniProt Q04759); test: PKCtheta (h) Upstate kinase activity assay; conditions: Compound concentration 10.0 uM
# [2] = target: BDNF/NT-3 growth factors receptor (Homo sapiens) (UniProt Q16620); test: TrkB (h) Upstate kinase activity assay; conditions: Compound concentration 10.0 uM
# [3] = target: Mitogen-activated protein kinase 1 (Homo sapiens) (UniProt P28482); test: MAPK2 (h) Upstate kinase activity assay; conditions: Compound concentration 10.0 uM
# Sequence of Mitogen-activated protein kinase 1 (Homo sapiens) (P28482 whole entry): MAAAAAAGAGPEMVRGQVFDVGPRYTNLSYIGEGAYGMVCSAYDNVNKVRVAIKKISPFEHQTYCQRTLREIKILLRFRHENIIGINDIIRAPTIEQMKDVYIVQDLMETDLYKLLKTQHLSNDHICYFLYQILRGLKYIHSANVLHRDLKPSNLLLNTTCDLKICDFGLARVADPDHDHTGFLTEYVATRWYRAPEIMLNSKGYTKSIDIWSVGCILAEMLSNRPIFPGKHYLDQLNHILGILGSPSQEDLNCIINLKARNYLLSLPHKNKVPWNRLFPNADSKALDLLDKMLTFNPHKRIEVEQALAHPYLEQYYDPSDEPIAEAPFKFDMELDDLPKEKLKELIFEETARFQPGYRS
# [4] = target: Sigma non-opioid intracellular receptor 1 (Homo sapiens, UniProt Q99720); test: GPCRScan assay: inhibition of Sigma 1; design: radioligand conc. used [nm] 4.0 – 5.0, parental cells HEKT
# Sequence of Sigma non-opioid intracellular receptor 1 (Q99720 whole entry): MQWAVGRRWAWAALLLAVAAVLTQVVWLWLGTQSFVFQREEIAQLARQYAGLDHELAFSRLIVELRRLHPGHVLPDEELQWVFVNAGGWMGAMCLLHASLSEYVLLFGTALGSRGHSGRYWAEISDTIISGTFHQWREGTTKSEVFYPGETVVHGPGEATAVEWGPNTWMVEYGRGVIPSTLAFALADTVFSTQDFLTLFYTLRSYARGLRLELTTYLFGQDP
# [5] = target: RAF proto-oncogene serine/threonine-protein kinase (Homo sapiens) (UniProt P04049); test: c-RAF (h) Upstate kinase activity assay; conditions: Compound concentration 10.0 uM
# [6] = target: Tyrosine-protein kinase Lyn (Mus musculus) (UniProt P25911); test: Lyn (m) Upstate kinase activity assay; conditions: Compound concentration 10.0 uM
# [7] = Melanoma B16-FO cell line MDS Pharma Services Proliferation Assay; type: functional, cell-based
# [8] = target: D(3) dopamine receptor (Homo sapiens) (UniProt P35462); conditions: Compound concentration 10.0 uM
# Sequence of D(3) dopamine receptor (Homo sapiens) (P35462 whole entry): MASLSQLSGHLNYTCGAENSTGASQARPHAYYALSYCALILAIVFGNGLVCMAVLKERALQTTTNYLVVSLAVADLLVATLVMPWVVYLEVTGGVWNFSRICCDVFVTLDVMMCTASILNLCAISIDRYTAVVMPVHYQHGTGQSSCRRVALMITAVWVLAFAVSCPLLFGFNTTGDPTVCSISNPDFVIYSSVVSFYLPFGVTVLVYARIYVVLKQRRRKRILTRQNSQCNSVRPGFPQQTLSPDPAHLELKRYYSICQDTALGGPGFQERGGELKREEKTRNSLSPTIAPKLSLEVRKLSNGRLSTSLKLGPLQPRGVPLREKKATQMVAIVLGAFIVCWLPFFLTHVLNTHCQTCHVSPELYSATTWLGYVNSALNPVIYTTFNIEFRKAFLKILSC
# [9] = target: Tyrosine-protein kinase Lyn (Homo sapiens) (UniProt P07948); test: Lyn (h) Upstate kinase activity assay; conditions: Compound concentration 10.0 uM
# [10] = target: cAMP-dependent protein kinase catalytic subunit alpha (Homo sapiens) (UniProt P17612); test: PKA (h) Upstate kinase activity assay; conditions: Compound concentration 10.0 uM
# [11] = target: Tyrosine-protein kinase Fes/Fps (Homo sapiens) (UniProt P07332); test: Fes (h) Upstate kinase activity assay; conditions: Compound concentration 10.0 uM
# [12] = Lung NCI-1-1460 cell line MDS Pharma Services Proliferation Assay; type: functional, cell-based, Homo sapiens
# MIA PaCa-2 = test: Pancreas MIA PaCa-2 cell line MDS Pharma Services Proliferation Assay; type: functional, cell-based, Homo sapiens
# [13] = target: Tyrosine-protein kinase Fyn (Homo sapiens) (UniProt P06241); test: Fyn (h) Upstate kinase activity assay; conditions: Compound concentration 10.0 uM
# Sequence of Tyrosine-protein kinase Fyn (Homo sapiens) (P06241 2-537 limits assumed): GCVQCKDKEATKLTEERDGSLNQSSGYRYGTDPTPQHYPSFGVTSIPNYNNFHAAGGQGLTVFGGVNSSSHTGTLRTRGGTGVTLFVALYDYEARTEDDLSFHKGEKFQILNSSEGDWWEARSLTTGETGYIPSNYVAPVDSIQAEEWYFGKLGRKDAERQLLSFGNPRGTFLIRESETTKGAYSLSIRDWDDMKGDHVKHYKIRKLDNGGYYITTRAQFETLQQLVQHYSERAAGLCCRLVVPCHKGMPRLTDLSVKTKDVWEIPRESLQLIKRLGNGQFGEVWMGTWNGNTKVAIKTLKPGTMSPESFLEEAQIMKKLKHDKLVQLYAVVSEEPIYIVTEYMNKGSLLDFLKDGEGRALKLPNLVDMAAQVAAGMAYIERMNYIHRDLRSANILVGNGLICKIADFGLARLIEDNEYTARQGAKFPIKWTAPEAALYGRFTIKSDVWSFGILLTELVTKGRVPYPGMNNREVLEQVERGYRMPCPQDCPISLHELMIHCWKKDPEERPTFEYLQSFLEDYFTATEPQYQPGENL
# [14] = target: Ribosomal protein S6 kinase beta-1 (Homo sapiens) (UniProt P23443); test: […] (h) Upstate kinase activity assay; conditions: Compound concentration 10.0 uM
# Sequence of Ribosomal protein S6 kinase beta-1 (Homo sapiens) (P23443 whole entry, looked up): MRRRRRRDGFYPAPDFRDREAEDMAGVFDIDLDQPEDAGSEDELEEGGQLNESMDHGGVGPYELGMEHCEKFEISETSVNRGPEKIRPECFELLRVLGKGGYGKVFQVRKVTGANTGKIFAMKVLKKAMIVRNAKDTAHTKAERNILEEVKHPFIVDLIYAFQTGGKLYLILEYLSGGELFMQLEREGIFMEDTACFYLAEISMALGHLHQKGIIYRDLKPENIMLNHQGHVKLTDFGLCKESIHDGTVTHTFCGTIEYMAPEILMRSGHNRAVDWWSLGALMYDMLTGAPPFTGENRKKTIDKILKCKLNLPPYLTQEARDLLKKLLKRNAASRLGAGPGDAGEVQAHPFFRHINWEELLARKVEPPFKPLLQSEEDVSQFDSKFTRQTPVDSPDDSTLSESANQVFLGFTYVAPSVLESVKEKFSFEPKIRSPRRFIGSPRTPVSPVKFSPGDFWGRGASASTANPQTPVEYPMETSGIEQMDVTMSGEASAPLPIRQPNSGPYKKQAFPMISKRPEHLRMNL
# [15] = target: Rho-associated protein kinase 2 (Rattus norvegicus) (UniProt Q62868); test: (§1) ROCK-2 (r) Upstate kinase activity assay; conditions: Compound concentration 10.0 uM
# [16] = target: Rho-associated protein kinase 2 (Rattus norvegicus, UniProt Q62868); test: as §1
# HT-29 = test: Colon HT-29 cell line MDS Pharma Services Proliferation Assay; type: functional, cell-based, Homo sapiens
# [17] = target: Mitogen-activated protein kinase 9 (Homo sapiens) (UniProt P45984); test: JNK2alpha2 (h) Upstate kinase activity assay; conditions: Compound concentration 10.0 uM
# Sequence of Mitogen-activated protein kinase 9 (Homo sapiens) (P45984 whole entry, looked up, canonical isoform): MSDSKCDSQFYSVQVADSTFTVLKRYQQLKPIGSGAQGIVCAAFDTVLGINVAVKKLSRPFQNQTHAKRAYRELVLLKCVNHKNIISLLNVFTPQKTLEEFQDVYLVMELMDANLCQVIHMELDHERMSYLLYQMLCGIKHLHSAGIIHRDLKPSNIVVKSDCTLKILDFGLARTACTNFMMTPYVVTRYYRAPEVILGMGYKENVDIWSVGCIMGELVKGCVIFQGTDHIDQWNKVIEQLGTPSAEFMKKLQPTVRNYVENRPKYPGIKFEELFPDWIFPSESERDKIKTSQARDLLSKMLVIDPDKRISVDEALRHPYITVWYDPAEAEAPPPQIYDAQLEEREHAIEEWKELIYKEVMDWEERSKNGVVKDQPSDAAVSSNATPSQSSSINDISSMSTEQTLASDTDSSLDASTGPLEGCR
# [18] = target: Phosphatidylinositol 4,5-bisphosphate 3-kinase catalytic subunit alpha isoform (Homo sapiens) (UniProt P42336); test: PIK3 (h) Upstate kinase activity assay; conditions: Compound concentration 10.0 uM
# [19] = target: Glycogen synthase kinase-3 beta (Homo sapiens) (UniProt P49841); test: GSK3beta (h) Upstate kinase activity assay; conditions: Compound concentration 10.0 uM
# [20] = target: Tyrosine-protein kinase receptor UFO (Homo sapiens) (UniProt P30530); test: Axl (h) Upstate kinase activity assay; conditions: Compound concentration 10.0 uM
# Sequence of Tyrosine-protein kinase receptor UFO (Homo sapiens) (P30530 whole entry): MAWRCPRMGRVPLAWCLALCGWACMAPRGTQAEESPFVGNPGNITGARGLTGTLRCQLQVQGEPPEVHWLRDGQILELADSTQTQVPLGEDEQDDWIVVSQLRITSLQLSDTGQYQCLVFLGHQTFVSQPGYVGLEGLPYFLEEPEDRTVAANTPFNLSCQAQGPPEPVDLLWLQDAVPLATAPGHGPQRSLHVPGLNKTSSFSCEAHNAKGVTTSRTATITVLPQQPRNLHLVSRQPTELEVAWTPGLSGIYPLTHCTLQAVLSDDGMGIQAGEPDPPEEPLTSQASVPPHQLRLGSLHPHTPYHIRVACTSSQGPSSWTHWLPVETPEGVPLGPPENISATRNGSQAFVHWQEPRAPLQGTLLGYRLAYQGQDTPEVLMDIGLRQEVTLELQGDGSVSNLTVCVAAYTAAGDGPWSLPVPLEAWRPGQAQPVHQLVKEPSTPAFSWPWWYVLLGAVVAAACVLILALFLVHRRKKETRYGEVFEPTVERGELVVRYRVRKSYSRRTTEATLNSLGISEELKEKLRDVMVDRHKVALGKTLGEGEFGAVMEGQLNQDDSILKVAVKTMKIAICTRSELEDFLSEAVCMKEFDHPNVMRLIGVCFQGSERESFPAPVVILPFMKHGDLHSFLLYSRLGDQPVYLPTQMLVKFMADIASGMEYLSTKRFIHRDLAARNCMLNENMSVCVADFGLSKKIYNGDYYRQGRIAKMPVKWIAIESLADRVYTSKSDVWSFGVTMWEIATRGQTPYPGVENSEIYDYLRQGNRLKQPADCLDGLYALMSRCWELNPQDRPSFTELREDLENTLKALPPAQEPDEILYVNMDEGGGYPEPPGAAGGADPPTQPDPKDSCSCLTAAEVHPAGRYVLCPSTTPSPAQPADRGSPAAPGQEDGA
# [21] = target: T1, Tyrosine-protein kinase receptor TYRO3 (Homo sapiens) (UniProt Q06418); test: Rse (h) Upstate kinase activity assay; conditions: Compound concentration 10.0 uM
# T1 sequence (whole entry): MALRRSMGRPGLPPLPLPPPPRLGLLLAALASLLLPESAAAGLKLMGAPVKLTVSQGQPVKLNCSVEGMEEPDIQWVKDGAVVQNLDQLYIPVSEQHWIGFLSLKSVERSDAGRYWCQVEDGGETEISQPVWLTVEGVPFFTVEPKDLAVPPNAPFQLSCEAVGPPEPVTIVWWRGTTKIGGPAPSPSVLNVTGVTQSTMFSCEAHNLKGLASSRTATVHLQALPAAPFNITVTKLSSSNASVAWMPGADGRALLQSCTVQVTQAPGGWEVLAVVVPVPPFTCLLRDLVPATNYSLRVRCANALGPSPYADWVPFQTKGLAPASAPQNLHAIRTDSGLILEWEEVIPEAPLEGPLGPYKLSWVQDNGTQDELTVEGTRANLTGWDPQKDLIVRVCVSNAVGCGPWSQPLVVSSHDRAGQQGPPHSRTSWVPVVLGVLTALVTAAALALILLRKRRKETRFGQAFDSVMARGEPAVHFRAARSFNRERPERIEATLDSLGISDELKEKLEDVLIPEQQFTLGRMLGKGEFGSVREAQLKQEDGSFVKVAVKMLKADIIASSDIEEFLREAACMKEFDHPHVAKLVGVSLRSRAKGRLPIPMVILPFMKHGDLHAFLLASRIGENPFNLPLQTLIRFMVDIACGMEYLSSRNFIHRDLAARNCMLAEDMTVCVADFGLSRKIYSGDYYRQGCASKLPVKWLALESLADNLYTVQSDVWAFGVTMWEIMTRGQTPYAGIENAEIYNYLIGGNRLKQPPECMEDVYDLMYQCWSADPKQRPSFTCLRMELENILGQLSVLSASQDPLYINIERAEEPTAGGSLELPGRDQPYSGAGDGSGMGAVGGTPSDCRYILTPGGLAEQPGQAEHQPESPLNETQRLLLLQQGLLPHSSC
# [22] = target: Tyrosine-protein kinase ABL2 (Mus musculus) (UniProt Q4JIM5); test: Arg (m) Upstate kinase activity assay; conditions: Compound concentration 10.0 uM
# Sequence of Tyrosine-protein kinase ABL2 (Mus musculus) (Q4JIM5 whole entry): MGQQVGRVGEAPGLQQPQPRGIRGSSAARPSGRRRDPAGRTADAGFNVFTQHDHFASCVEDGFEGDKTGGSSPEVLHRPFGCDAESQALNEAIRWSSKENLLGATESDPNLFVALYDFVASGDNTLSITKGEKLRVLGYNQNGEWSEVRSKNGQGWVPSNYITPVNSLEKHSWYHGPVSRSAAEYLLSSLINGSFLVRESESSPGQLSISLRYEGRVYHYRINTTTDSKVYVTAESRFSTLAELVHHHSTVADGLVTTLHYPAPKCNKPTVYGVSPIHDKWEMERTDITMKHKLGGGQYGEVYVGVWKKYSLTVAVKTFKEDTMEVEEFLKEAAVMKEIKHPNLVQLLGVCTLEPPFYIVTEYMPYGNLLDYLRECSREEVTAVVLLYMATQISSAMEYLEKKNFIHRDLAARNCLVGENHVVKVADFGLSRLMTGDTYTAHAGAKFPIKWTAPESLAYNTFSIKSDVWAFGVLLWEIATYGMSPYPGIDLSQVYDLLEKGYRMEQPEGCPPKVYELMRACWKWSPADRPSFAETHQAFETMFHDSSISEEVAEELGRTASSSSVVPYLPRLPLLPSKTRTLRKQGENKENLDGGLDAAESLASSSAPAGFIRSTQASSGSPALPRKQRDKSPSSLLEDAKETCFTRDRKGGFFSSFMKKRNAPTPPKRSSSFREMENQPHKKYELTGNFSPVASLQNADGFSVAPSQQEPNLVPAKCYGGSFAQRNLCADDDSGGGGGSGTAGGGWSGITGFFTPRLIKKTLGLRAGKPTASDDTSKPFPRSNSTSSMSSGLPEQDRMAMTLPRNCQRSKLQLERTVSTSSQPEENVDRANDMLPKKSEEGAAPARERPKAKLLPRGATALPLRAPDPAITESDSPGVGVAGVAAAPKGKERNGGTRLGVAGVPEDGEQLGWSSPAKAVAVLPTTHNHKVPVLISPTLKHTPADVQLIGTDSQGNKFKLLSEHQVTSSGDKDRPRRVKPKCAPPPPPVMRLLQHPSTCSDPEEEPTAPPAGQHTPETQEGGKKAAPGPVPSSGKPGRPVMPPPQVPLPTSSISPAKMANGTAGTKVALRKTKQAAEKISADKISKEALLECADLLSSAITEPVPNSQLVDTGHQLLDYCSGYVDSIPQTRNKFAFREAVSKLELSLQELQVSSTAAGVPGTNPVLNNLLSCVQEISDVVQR
# [23] = target: Tyrosine-protein kinase Yes (Homo sapiens) (UniProt P07947); test: Yes (h) Upstate kinase activity assay; conditions: Compound concentration 10.0 uM
# [24] = target: Muscarinic acetylcholine receptor M4 (Homo sapiens) (UniProt P08173); conditions: Compound concentration 10.0 uM
# Sequence of Muscarinic acetylcholine receptor M4 (Homo sapiens) (P08173 whole entry): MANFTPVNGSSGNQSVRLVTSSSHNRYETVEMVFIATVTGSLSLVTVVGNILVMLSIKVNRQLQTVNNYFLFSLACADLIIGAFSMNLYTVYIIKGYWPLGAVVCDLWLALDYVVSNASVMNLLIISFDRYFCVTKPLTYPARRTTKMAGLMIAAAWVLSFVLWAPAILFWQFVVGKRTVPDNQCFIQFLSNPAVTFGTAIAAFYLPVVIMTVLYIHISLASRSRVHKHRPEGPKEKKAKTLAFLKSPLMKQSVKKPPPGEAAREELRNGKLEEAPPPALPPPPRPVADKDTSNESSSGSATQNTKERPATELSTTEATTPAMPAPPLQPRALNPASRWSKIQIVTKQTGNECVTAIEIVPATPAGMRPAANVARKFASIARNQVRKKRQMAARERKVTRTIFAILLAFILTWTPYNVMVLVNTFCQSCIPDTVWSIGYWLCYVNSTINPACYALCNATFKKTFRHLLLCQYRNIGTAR
# [25] = test system: Epidermal growth factor receptor (Homo sapiens), P00533 [L858R,T790M]; conditions: Compound concentration 100.0 nM
# [26] = test system: Epidermal growth factor receptor (Homo sapiens), P00533 [L858R]; conditions: Compound concentration 100.0 nM
# [27] = target: Alpha-2C adrenergic receptor (Homo sapiens) (UniProt P18825); conditions: Compound concentration 10.0 uM
compound,measurement,setting,value
Cc1c[nH]c2nccc(Oc3c(F)cc(Nc4cc(Cl)nc(N)n4)cc3F)c12 [BAY-549],inhibition,[1],42%
same,inhibition,[2],84%
same,inhibition,[3],17%
same,Ki,[4],6.77 µM
same,inhibition,[5],76%
same,inhibition,[6],4%
same,CC50,"[7]; Mus musculus, B16-F10, read-out: LC50 (the source's name)",> 100 µM
same,Mean % growth (n = 2) for 1.0 µM probe concentration,[7]; ± SEM 1 % growth,106%
same,Mean % growth (n = 2) for 0.1 µM probe concentration,[7]; ± SEM 4 % growth,94%
same,Mean % growth (n = 2) for 0.01 µM probe concentration,[7]; ± SEM 5 % growth,98%
same,Mean % growth (n = 2) for 100.0 µM probe concentration,[7]; ± SEM 5 % growth,-46%
same,Mean % growth (n = 2) for 10.0 µM probe concentration,[7]; ± SEM 9 % growth,53%
same,inhibition,[8],-5.8%
same,inhibition,[9],31%
same,inhibition,[10],95%
same,inhibition,[11],28%
same,TGI,"[12]; Homo sapiens, Lung NCI-1-1460",11 µM
same,CC50,"[12]; Homo sapiens, Lung NCI-1-1460, read-out: LC50 (the source's name)",> 100 µM
same,Mean % growth (n = 2) for 0.01 µM probe concentration,[12]; ± SEM 1 % growth,98%
same,Mean % growth (n = 2) for 10.0 µM probe concentration,[12]; ± SEM 1 % growth,2%
same,Mean % growth (n = 2) for 1.0 µM probe concentration,[12]; ± SEM 2 % growth,50%
same,Mean % growth (n = 2) for 0.1 µM probe concentration,[12]; ± SEM 3 % growth,82%
same,Mean % growth (n = 2) for 100.0 µM probe concentration,[12]; ± SEM 12 % growth,-45%
same,Mean % growth (n = 2) for 10.0 µM probe concentration,MIA PaCa-2,45%
same,IC50,"MIA PaCa-2; Homo sapiens, MIA PaCa-2",8.9 µM
same,TGI,"MIA PaCa-2; Homo sapiens, MIA PaCa-2",48 µM
same,CC50,"MIA PaCa-2; Homo sapiens, MIA PaCa-2, read-out: LC50 (the source's name)",> 100 µM
same,Mean % growth (n = 2) for 0.1 µM probe concentration,MIA PaCa-2; ± SEM 1 % growth,98%
same,Mean % growth (n = 2) for 0.01 µM probe concentration,MIA PaCa-2; ± SEM 3 % growth,95%
same,Mean % growth (n = 2) for 1.0 µM probe concentration,MIA PaCa-2; ± SEM 3 % growth,88%
same,Mean % growth (n = 2) for 100.0 µM probe concentration,MIA PaCa-2; ± SEM 5 % growth,-23%
same,inhibition,[13],14%
same,inhibition,[14],84%
same,inhibition,[15],102%
same,IC50,[16],< 0.001 µM
same,IC50,"HT-29; Homo sapiens, HT-29",2.9 µM
same,TGI,"HT-29; Homo sapiens, HT-29",19 µM
same,CC50,"HT-29; Homo sapiens, HT-29, read-out: LC50 (the source's name)",> 100 µM
same,Mean % growth (n = 2) for 0.1 µM probe concentration,HT-29; ± SEM 1 % growth,95%
same,Mean % growth (n = 2) for 1.0 µM probe concentration,HT-29; ± SEM 1 % growth,75%
same,Mean % growth (n = 2) for 10.0 µM probe concentration,HT-29; ± SEM 4 % growth,10%
same,Mean % growth (n = 2) for 0.01 µM probe concentration,HT-29; ± SEM 8 % growth,100%
same,Mean % growth (n = 2) for 100.0 µM probe concentration,HT-29; ± SEM 9 % growth,-38%
same,inhibition,[17],16%
same,inhibition,[18],-3%
same,inhibition,[19],-1%
same,inhibition,[20],85%
same,inhibition,[21],15%
same,inhibition,[22],36%
same,inhibition,[23],23%
Cn1cc(Cl)c2c(Oc3c(F)cc(Nc4cc(Cl)nc(N)n4)cc3F)ccnc21 [BAY-4900],inhibition,[24],-3.76%
same,residual activity,[25],84%
same,residual activity,[26],98%
same,inhibition,[27],-6.8%
